In ChEMBL document CHEMBL3779770, “Synthesis, biological evaluation and molecular docking study of some novel indole and pyridine based 1,3,4-oxadiazole derivatives as potential antitubercular agents” (Bioorg Med Chem Lett, 2016):
Values after ≈ are worked out from the molar mass of the structure shown.

Experiments:
[1] = Cytotoxicity against human PANC1 cells after 48 hrs by MTT assay; format: cell-based, PANC-1; conditions: for GI50 at 48 h: PANC1 cells; for GI90: panc-1, 48 h
Escherichia coli = test: Antibacterial activity against Escherichia coli NCIM 2688 after 8 hrs; format: functional, organism-based; conditions: NCIM 2688, 8 h
Staphylococcus aureus = test: Antibacterial activity against Staphylococcus aureus NCIM 2010 after 12 hrs; format: functional, organism-based; conditions: NCIM 2010, 12 h
Bacillus subtilis = test: Antibacterial activity against Bacillus subtilis NCIM 2079 after 12 hrs; format: functional, organism-based; conditions: NCIM 2079, 12 h
[2] = system: Mycobacterium tuberculosis; test: Antitubercular activity against active state Mycobacterium tuberculosis H37Ra assessed as viable cells after 8 days by XTT reduction menadione assay; format: functional, organism-based; conditions: 192 h
Pseudomonas fluorescens = test: Antibacterial activity against Pseudomonas fluorescens NCIM 2036 after 8 hrs; format: functional, organism-based; conditions: NCIM 2036, 8 h
[3] = system: Mycobacterium tuberculosis; test: Antitubercular activity against dormant state Mycobacterium tuberculosis H37Ra assessed as viable cells after 12 days by XTT reduction menadione assay; format: functional, organism-based; conditions: 288 h
[4] = (§1) Cytotoxicity against human A549 cells after 48 hrs by MTT assay; format: cell-based; conditions: A549 cells
A549 = test: as §1; format: cell-based; conditions: a549, 48 h
[5] = Selectivity index, ratio of GI50 for human PANC1 cells to MIC for dormant state Mycobacterium bovis BCG ATCC 35734; format: toxicity, cell-based, PANC-1; conditions: read-out: Selectivity Index
[6] = Selectivity index, ratio of GI50 for human PANC1 cells to MIC for active state Mycobacterium bovis BCG ATCC 35734; format: toxicity, cell-based, PANC-1; conditions: read-out: Selectivity Index
[7] = Selectivity index, ratio of GI50 for human A549 cells to MIC for dormant state Mycobacterium bovis BCG ATCC 35734; format: toxicity, cell-based; conditions: read-out: Selectivity Index
[8] = Selectivity index, ratio of GI50 for human HeLa cells to MIC for active state Mycobacterium bovis BCG ATCC 35734; format: toxicity, cell-based; conditions: read-out: Selectivity Index
[9] = Selectivity index, ratio of GI50 for human A549 cells to MIC for active state Mycobacterium bovis BCG ATCC 35734; format: toxicity, cell-based; conditions: read-out: Selectivity Index
[10] = Selectivity index, ratio of GI50 for human HeLa cells to MIC for dormant state Mycobacterium bovis BCG ATCC 35734; format: toxicity, cell-based; conditions: read-out: Selectivity Index
HeLa = test: (§2) Cytotoxicity against human HeLa cells after 72 hrs by MTT assay; format: cell-based; conditions: hela, 72 h
[11] = as §2; format: cell-based; conditions: HeLa cells

O=C(/C=C\c1ccc([N+](=O)[O-])cc1)N1N=C(c2ccncc2)OC1c1c[nH]c2ccccc12 (centres undefined)
GI50 at 48 h [1]: > 30 µg/mL | GI90 [1]: > 30 µg/mL | IC50 (Escherichia coli): 9.46 µg/mL (≈ 21.5 µM) | MIC (Escherichia coli): 28.2 µg/mL (≈ 64.3 µM) | IC50 (Staphylococcus aureus): 12.7 µg/mL (≈ 28.8 µM) | MIC (Staphylococcus aureus): 30.6 µg/mL (≈ 69.7 µM) | IC50 (Bacillus subtilis): 13.5 µg/mL (≈ 30.6 µM) | MIC (Bacillus subtilis): 31.4 µg/mL (≈ 71.6 µM) | IC50 [2]: > 30 µg/mL | MIC [2]: > 30 µg/mL | IC50 (Pseudomonas fluorescens): 11.9 µg/mL (≈ 27 µM) | MIC (Pseudomonas fluorescens): 29.1 µg/mL (≈ 66.1 µM) | IC50 [3]: > 30 µg/mL | MIC [3]: > 30 µg/mL | GI50 at 48 h [4]: > 30 µg/mL | GI90 (A549): > 30 µg/mL | selectivity ratio [5]: > 12.7 | selectivity ratio [6]: > 12 | selectivity ratio [7]: > 12.7 | selectivity ratio [8]: > 12 | selectivity ratio [9]: > 12 | selectivity ratio [10]: > 12.7 | GI90 (HeLa): > 30 µg/mL | GI50 at 72 h [11]: > 30 µg/mL

O=C(/C=C\c1ccccc1O)N1N=C(c2ccncc2)OC1c1c[nH]c2ccccc12 (centres undefined)
GI50 at 48 h [1]: > 30 µg/mL | GI90 [1]: > 30 µg/mL | IC50 (Escherichia coli): 21.7 µg/mL (≈ 52.9 µM) | MIC (Escherichia coli): > 256 µg/mL | IC50 (Staphylococcus aureus): 23.3 µg/mL (≈ 56.8 µM) | MIC (Staphylococcus aureus): > 256 µg/mL | IC50 (Bacillus subtilis): 22.1 µg/mL (≈ 53.9 µM) | MIC (Bacillus subtilis): > 256 µg/mL | IC50 [2]: > 30 µg/mL | MIC [2]: > 30 µg/mL | IC50 (Pseudomonas fluorescens): 22.5 µg/mL (≈ 54.9 µM) | MIC (Pseudomonas fluorescens): 192 µg/mL (≈ 469 µM) | IC50 [3]: > 30 µg/mL | MIC [3]: > 30 µg/mL | GI50 at 48 h [4]: > 30 µg/mL | GI90 (A549): > 30 µg/mL | selectivity ratio [5]: > 25.2 | selectivity ratio [6]: > 31.9 | selectivity ratio [7]: > 25.2 | selectivity ratio [8]: 28.5 | selectivity ratio [9]: > 31.9 | selectivity ratio [10]: 22.5 | GI90 (HeLa): > 30 µg/mL | GI50 at 72 h [11]: 26.8 µg/mL (≈ 65.3 µM)

O=C(/C=C\c1ccc(Br)cc1)N1N=C(c2ccncc2)OC1c1c[nH]c2ccccc12 (centres undefined)
GI50 at 48 h [1]: > 30 µg/mL | GI90 [1]: > 30 µg/mL | IC50 (Escherichia coli): 12.1 µg/mL (≈ 25.6 µM) | MIC (Escherichia coli): > 256 µg/mL | IC50 (Staphylococcus aureus): 12.8 µg/mL (≈ 27 µM) | MIC (Staphylococcus aureus): > 256 µg/mL | IC50 (Bacillus subtilis): 15.2 µg/mL (≈ 32.1 µM) | MIC (Bacillus subtilis): > 256 µg/mL | IC50 [2]: > 30 µg/mL | MIC [2]: > 30 µg/mL | IC50 (Pseudomonas fluorescens): 10.4 µg/mL (≈ 22 µM) | MIC (Pseudomonas fluorescens): > 256 µg/mL | IC50 [3]: > 30 µg/mL | MIC [3]: > 30 µg/mL | GI50 at 48 h [4]: > 30 µg/mL | GI90 (A549): > 30 µg/mL | GI90 (HeLa): > 30 µg/mL | GI50 at 72 h [11]: > 30 µg/mL

O=C(/C=C\c1ccc(Cl)cc1Cl)N1N=C(c2ccncc2)OC1c1c[nH]c2ccccc12 (centres undefined)
GI50 at 48 h [1]: > 30 µg/mL | GI90 [1]: > 30 µg/mL | IC50 (Escherichia coli): > 256 µg/mL | MIC (Escherichia coli): > 256 µg/mL | IC50 (Staphylococcus aureus): > 256 µg/mL | MIC (Staphylococcus aureus): > 256 µg/mL | IC50 (Bacillus subtilis): > 256 µg/mL | MIC (Bacillus subtilis): > 256 µg/mL | IC50 [2]: 29.3 µg/mL (≈ 63.3 µM) | MIC [2]: > 30 µg/mL | IC50 (Pseudomonas fluorescens): > 256 µg/mL | MIC (Pseudomonas fluorescens): > 256 µg/mL | IC50 [3]: 27.5 µg/mL (≈ 59.4 µM) | MIC [3]: > 30 µg/mL | GI50 at 48 h [4]: > 30 µg/mL | GI90 (A549): > 30 µg/mL | selectivity ratio [5]: > 6.03 | selectivity ratio [6]: > 5.8 | selectivity ratio [7]: > 6.03 | selectivity ratio [8]: 5.68 | selectivity ratio [9]: > 5.8 | selectivity ratio [10]: 5.9 | GI90 (HeLa): > 30 µg/mL | GI50 at 72 h [11]: 29.3 µg/mL (≈ 63.3 µM)

O=C(/C=C\c1ccccc1[N+](=O)[O-])N1N=C(c2ccncc2)OC1c1c[nH]c2ccccc12 (centres undefined)
GI50 at 48 h [1]: > 30 µg/mL | GI90 [1]: > 30 µg/mL | IC50 (Escherichia coli): 18.4 µg/mL (≈ 41.8 µM) | MIC (Escherichia coli): > 256 µg/mL | IC50 (Staphylococcus aureus): 21.1 µg/mL (≈ 47.9 µM) | MIC (Staphylococcus aureus): > 256 µg/mL | IC50 (Bacillus subtilis): 24.2 µg/mL (≈ 55.2 µM) | MIC (Bacillus subtilis): > 256 µg/mL | IC50 [2]: > 30 µg/mL | MIC [2]: > 30 µg/mL | IC50 (Pseudomonas fluorescens): 19.2 µg/mL (≈ 43.7 µM) | MIC (Pseudomonas fluorescens): > 256 µg/mL | IC50 [3]: > 30 µg/mL | MIC [3]: > 30 µg/mL | GI50 at 48 h [4]: > 30 µg/mL | GI90 (A549): > 30 µg/mL | selectivity ratio [5]: > 35.3 | selectivity ratio [6]: > 29.1 | selectivity ratio [7]: > 35.3 | selectivity ratio [8]: > 29.1 | selectivity ratio [9]: > 29.1 | selectivity ratio [10]: > 35.3 | GI90 (HeLa): > 30 µg/mL | GI50 at 72 h [11]: > 30 µg/mL

NNC(=O)c1ccncc1 [ISONIAZID]
IC50 [2]: 0.0013 µg/mL (≈ 0.00948 µM) | MIC [2]: 0.031 µg/mL (≈ 0.226 µM) | IC50 [3]: 0.0014 µg/mL (≈ 0.0102 µM) | MIC [3]: 0.034 µg/mL (≈ 0.248 µM) | selectivity ratio [5]: > 2560 | selectivity ratio [6]: > 3030 | selectivity ratio [7]: > 2560 | selectivity ratio [8]: > 3030 | selectivity ratio [9]: > 3030 | selectivity ratio [10]: > 2560

CO[C@H]1/C=C/O[C@@]2(C)Oc3c(C)c(O)c4c(O)c(c(/C=N/N5CCN(C)CC5)c(O)c4c3C2=O)NC(=O)/C(C)=C\C=C\[C@H](C)[C@H](O)[C@@H](C)[C@@H](O)[C@@H](C)[C@H](OC(C)=O)[C@@H]1C [RIFAMPIN]
IC50 [2]: 0.0016 µg/mL (≈ 0.00194 µM) | MIC [2]: 0.041 µg/mL (≈ 0.0498 µM) | IC50 [3]: 0.0017 µg/mL (≈ 0.00207 µM) | MIC [3]: 0.045 µg/mL (≈ 0.0547 µM) | selectivity ratio [5]: > 2700 | selectivity ratio [6]: > 2860 | selectivity ratio [7]: > 2700 | selectivity ratio [8]: > 2860 | selectivity ratio [9]: > 2860 | selectivity ratio [10]: > 2700
